# Source: US5719287A, “Intermediates for inhibitors of HIV protease and method of preparation thereof” (Eli Lilly and Company, priority 1995, dated 1998)
# Like-named read-outs stand apart in the source and are kept apart here.
# Molecular target: T1, HIV-1 protease (Human immunodeficiency virus type 1 group M subtype B, UniProt P04585)
# T1 construct: Purified HIV-1 protease was obtained as described below; made in house; host or cells: E. coli K12 L507/pHP10D (NRRL B-18560)
# Test: biochemical
# Conditions: read-out: Fluorescence Assay IC50 (converted)
# Experimental: N^α -Biotin-[…]Ne-FITC)-OH
# The purified peptide was labeled as follows with a fluorescent marker at the C-terminal end for use in the assay. N^α -Biotin-Gly-Ser-Gln-Asn-Tyr-Pro-lle-Val-Gly-Lys-OH (1.206 g, 0.936 mmoles) was dissolved in 100 mL of 0.1M sodium borate, pH 9.5 with stirring. Then, 3 g of fluorescein isothiocyanate (7.7 mmol) was dissolved in 15 mL dimethyl sulfoxide and the solution added to the reaction in 10 equal portions over the course of a two hour period. The reaction was allowed to proceed for a further one hour after the final addition had been made. The pH of the solution was adjusted to 3 with 5N HCl. A precipitate formed which was removed from the reaction by centrifugation.
# Fluorescence HIV-1 Protease Inhibitor Assay Procedure.
# To each well of a round bottom, 96-well plate is added 20 μl of the Enzyme Solution followed by 10 μl of the compound to be evaluated in 20% aqueous DMSO. Purified HIV-1 protease was obtained as described below. The solution is incubated for one hour at room temperature and then 20 μl of a solution of the substrate N^α -Biotin-[…]N^e -FITC)-OH, in MES-ALB buffer (1.5 μl/ml) is added to each well. The solutions are incubated for 16 hours at room temperature and thereafter to each well is added 150 μl of MES-ALB buffer.
# To each well of a 96-well Pandex plate is added 25 μl of the Avidin Coated Beads Solution. Next, 25 μl of the diluted incubation solutions, described above, are added to each well of the Pandex plate. The solutions are mixed well and the plates are loaded into a Pandex® machine, washed, evacuated and read. Sample detection was performed by excitation at 485 nm and reading the resulting epifluorescence at 535 nm.
# A culture of E. coli K12 L507/pHP10D was grown to mid-log phase at 32° C. in LB media containing 12.5 μg/ml tetracycline. The cultivation temperature was quickly elevated to 40° C. to induce gene expression, and the cells were allowed to grow for 2.5 hours at this temperature before the culture was quickly chilled on ice. The cells were centrifuged and the cell pellet was resuspended in 20 ml 50 mmol MES buffer (pH 6.0) containing 1 mmol EDTA, 1 mmol DTT, 1 mmol PMSF, and 10% glycerol (Buffer A). Cells were lysed by sonication using a Fischer Model 300 Dismembrator and a microtip probe. […] Enzymatic activity was measured by HPLC using the synthetic peptide SQNYPIV as described in Margolin et al., Biochem. Biophys. Res. Commun., 167, 554-560 (1990); the production of the pl peptide (SQNY) was measured.
# Active fractions were pooled, made 1.2M in ammonium sulfate, and applied to a hexyl agarose column (2.0×18 cm) equilibrated in Buffer A containing 1.2M ammonium sulfate. The sample, in 125 ml (1.85 mg/ml), was loaded at a flow rate of 1 ml/min at 4° C. […] The column was then washed isocratically in Buffer A for 120 min. Active fractions were pooled, concentrated to 10 ml using an Amicon stirred cell with a YM-10 membrane, and applied at 1 ml/min to a MonoS cation exchange column (1.0×10 cm) equilibrated in Buffer A. After washing isocratically for 30 min, protease was eluted using a linear gradient of 0-0.45M NaCl in Buffer A over 40 min followed by an isocratic wash with Buffer A containing 0.45M NaCl over 30 min. Chromatography was performed at 25° C.
# Pooled active fractions were concentrated to 200 ul using an Amicon stirred cell and a YM-10 membrane, and the protease was then applied to a Superose 6 size exclusion column equilibrated in Buffer A containing 0.1M NaCl. The column was washed isocratically in this buffer at a flow rate of 0.5 ml/min.
# [1] = purified HIV-1 protease, MES-ALB buffer pH 5.5, 1 h preincubation, 16 h with substrate, room temperature, IC50 values for Examples 2-70 are standardized relative to Ex 1
SMILES,IC50 [nM],IC50 [1] [nM]
"CC(C)(C)NC(=O)c1ccccc1C[C@@H](O)[C@H](Cc1ccccc1)NC(=O)[C@H](CC(N)=O)NC(=O)c1ccccc1 [Example 28, [1S-(1R*, 4R*, 5S*)]-N-(1-(2-amino-2-oxoethyl)-2-oxo-3-aza-4-phenylmethyl-5-hydroxy-6-(2-(1-t-butylamino-1-oxomethyl)phenyl)hexyl)phenyl carboxamide]",12.5,
"CC(C)(C)NC(=O)c1ccccc1C[C@@H](O)[C@H](Cc1ccccc1)NC(=O)[C@H](CC(N)=O)NC(=O)Cc1ccc2ccccc2c1 [Example 31, [1S-(1R*, 4R*, 5S*)]-N-(1-(2-amino-2-oxoethyl)-2-oxo-3-aza-4-phenylmethyl-5-hydroxy-6-(2-(1-t-butylamino-1-oxomethyl)phenyl)hexyl)-2-naphthyl acetamide]",11.4,
"CC(C)[C@H](NC(=O)c1cnc2ccccc2n1)C(=O)N[C@@H](Cc1ccccc1)[C@H](O)Cc1ccccc1C(=O)NC(C)(C)C [Example 34, [1S-(1R*, 4R*, 5S*)]-N-(1-(1-methylethyl)-2-oxo-3-aza-4-phenylmethyl-5-hydroxy-6-(2-(1-t-butylamino-1-oxomethyl)phenyl)hexyl)-2-quinoxalinyl acetamide]",,7.55
CC(C)[C@H](NC(=O)c1ccc2ccccc2c1)C(=O)N[C@@H](Cc1ccccc1)[C@H](O)Cc1ccccc1C(=O)NC(C)(C)C [Example 35],,131
"CCC(C)[C@H](NC(=O)OCc1ccc2ccccc2n1)C(=O)N[C@@H](Cc1ccccc1)[C@H](O)Cc1ccccc1C(=O)NC(C)(C)C (stereo partly drawn) [Example 38, [2R-(2R*, 3S*, 6S*)]-N-t-butyl-2-(2-hydroxy-3-phenylmethyl-4-aza-5-oxo-6-(1-methylpropyl)-6-(N-quinolin-2-ylmethoxycarbonylamino)hexyl)benzamide]",1.21,
"CCC(C)[C@H](NC(=O)N(C)Cc1ccc2ccccc2n1)C(=O)N[C@@H](Cc1ccccc1)[C@H](O)Cc1ccccc1C(=O)NC(C)(C)C (stereo partly drawn) [Example 39, [2R-(2R*, 3S*, 6S*)]-N-t-butyl-2-(2-hydroxy-3-phenylmethyl-4-aza-5-oxo-6-(1-methylpropyl)-7-aza-8-oxo-8-(N-methyl-N-quinolin-2-ylmethylamino)octyl)benzamide]",5.06,
"CC(C)(C)NC(=O)c1ccccc1C[C@@H](O)[C@H](Cc1ccccc1)NC(=O)[C@H](CC(=O)NCc1ccccn1)NC(=O)c1ccc2ccccc2n1 [Example 45, [1S-[1R*, 4R*, 5S*)]-N-(1-(2-(N-2-pyridylmethyl)amino)-2-oxoethyl]-2-oxo-3-aza-4-phenylmethyl-5-hydroxy-6-(2-(1-t-butylamino-1-oxomethyl)phenyl)hexyl)-2quinolinyl carboxamide]",1.26,
"CC(C)(C)NC(=O)c1ccccc1C[C@@H](O)[C@H](Cc1ccccc1)NC(=O)[C@H](CC(=O)NCc1ncc[nH]1)NC(=O)c1ccc2ccccc2n1 [Example 46, [1S-(1R*, 4R*, 5S*)]-N-(1-(2-(N-2-imidazolylmethyl)amino)-2-oxoethyl)-2-oxo-3-aza-4-phenylmethyl-5-hydroxy-6-(2-(1-t-butylamino-1-oxomethyl)phenyl)hexyl)-2-quinolinyl carboxamide]",1.88,
"CC(C)(C)NC(=O)c1ccccc1C[C@@H](O)[C@H](Cc1ccccc1)NC(=O)[C@H](CC(=O)Nc1ccncc1)NC(=O)c1ccc2ccccc2n1 [Example 48, [1S-(1R*, 4R*, 5S*)]-N-(1-(2-(N-pyrid-4-yl)amino)-2-oxoethyl)-2-oxo-3-aza-4-phenylmethyl-5-hydroxy-6-(2-(1-t-butylamino-1-oxomethyl)phenyl)hexyl)-2-quinolinyl carboxamide]",1.16,
"CC(C)(C)NC(=O)c1ccccc1C[C@@H](O)[C@H](Cc1ccccc1)NC(=O)[C@H](CC(=O)NCc1nc2ccccc2[nH]1)NC(=O)c1ccc2ccccc2n1 [Example 49, [1S-(1R*, 4R*, 5S*)]-N-(1-(2-(N-2-benzimidazolylmethyl)amino)-2-oxoethyl)-2-oxo-3-aza-4-phenylmethyl-5-hydroxy-6-(2-(1-t-butylamino-1-oxomethyl)phenyl)hexyl)-2-quinolinyl carboxamide]",0.676,

# Continued, values first:
IC50 [nM],IC50 [1] [nM],SMILES
129,,"CC(C)(C)NC(=O)c1ccccc1C[C@@H](O)[C@H](Cc1ccccc1)NC(=O)[C@H](CC(N)=O)NC(=O)c1ccccn1 [Example 29, [1S-(1R*, 4R*, 5S*)]-N-(1-(2-amino-2-oxoethyl)-2-oxo-3-aza-4-phenylmethyl-5-hydroxy-6-(2-(1-t-butylamino-1-oxomethyl)phenyl)hexyl)-2-pyridyl carboxamide]"
11.8,,"CC(C)(C)NC(=O)c1ccccc1C[C@@H](O)[C@H](Cc1ccccc1)NC(=O)[C@H](CC(N)=O)NC(=O)c1cc2ccccc2cn1 [Example 30, [1S-(1R*, 4R*, 5S*)]-N-(1-(2-amino-2-oxoethyl)-2-oxo-3-aza-4-phenylmethyl-5-hydroxy-6-(2-(1-t-butylamino-1-oxomethyl)phenyl)hexyl)-3-isoquinolinyl carboxamide]"
3.75,,"CC(C)(C)NC(=O)c1ccccc1C[C@@H](O)[C@H](Cc1ccccc1)NC(=O)[C@H](CC(N)=O)NC(=O)COc1ccc2ccccc2n1 [Example 32, [1S-(1R*, 4R*, 5S*)]-N-(1-(2-amino-2-oxoethyl)-2-oxo-3-aza-4-phenylmethyl-5-hydroxy-6-(2-(1-t-butylamino-1-oxomethyl)phenyl)hexyl)-2-quinolinoxy acetamide]"
46.7,,"CC(C)(C)NC(=O)c1occc1C[C@@H](O)[C@H](Cc1ccccc1)NC(=O)[C@H](CC(N)=O)NC(=O)c1ccc2ccccc2n1 [Example 40, [1S-(1R*, 4R*, 5S*)]-N-(1-(2-amino-2-oxoethyl)-2-oxo-3-aza-4-phenylmethyl-5-hydroxy-6-(2-(1-t-butylamino-1-oxomethyl)fur-3-yl)hexyl)-2-quinolinyl carboxamide]"
13,,"CC(C)(C)NC(=O)c1sccc1C[C@@H](O)[C@H](Cc1ccccc1)NC(=O)[C@H](CC(N)=O)NC(=O)c1ccc2ccccc2n1 [Example 41, [1S-(1R*, 4R*. 5S*) ]-N-(1-(2-amino-2-oxoethyl)-2-oxo-3-aza-4-phenylmethyl-5-hydroxy-6-(2-(1-t-butylamino-1-oxomethyl)thien-3-yl)hexyl)-2-quinolinyl carboxamide]"
523,,"CC(C)(C)NC(=O)c1oc2ccccc2c1C[C@@H](O)[C@H](Cc1ccccc1)NC(=O)[C@H](CC(N)=O)NC(=O)c1ccc2ccccc2n1 [Example 42, [1S-(1R*, 4R*, 5S*)]-N-(1-(2-amino-2-oxoethyl)-2-oxo-3-aza-4-phenylmethyl-5-hydroxy-6-(2-(1-t-butylamino-1-oxomethyl)benzofur-3-yl)hexyl)-2-quinolinyl carboxamide]"
2.13,,"CC(C)(C)NC(=O)c1ccccc1C[C@@H](O)[C@H](Cc1ccccc1)NC(=O)[C@H](CC(=O)O)NC(=O)c1ccc2ccccc2n1 [Example 43, [1S-(1R*, 4R*, 5S*)]-N-(1-(2-hydroxy-2-oxoethyl)-2-oxo-3-aza-4-phenylmethyl-5-hydroxy-6-(2-(1-t-butylamino-1-oxomethyl)phenyl)hexyl)-2-quinolinyl carboxamide]"
2.08,,"CC(C)(C)NC(=O)c1ccccc1C[C@@H](O)[C@H](Cc1ccccc1)NC(=O)[C@H](CCC(=O)O)NC(=O)c1ccc2ccccc2n1 [Example 44, [1S-(1R*, 4R*, 5S*)]-N-(1-(3-hydroxy-3-oxopropyl)-2-oxo-3-aza-4-phenylmethyl-5-hydroxy-6-(2-(1-t-butylamino-1-oxomethyl)phenyl)hexyl)-2-quinolinyl carboxamide]"
